Patent publication US20030049284A1, “Method of increasing the solubility of alphahydrocarboxilic salts, and products obtained by the method” (priority 2001, published 2003)

Assays:
[1] = water at 20° C.; literature value (index Merck Ref. 1675; F.C.C. IV Ed. Page 153); cited from earlier work
[2] = Solubility in water (comparative data and examples); assay type: physicochemical; conditions: in 1 liter of water at 20-25° C.

For `O=C([O-])[C@H](O)[C@@H](O)[C@H](O)[C@H](O)CO.O=C([O-])[C@H](O)[C@@H](O)[C@H](O)[C@H](O)CO.[Fe+2]` [Fe(II) gluconate], the solubility in water [1] is listed as 100 gr/1000 ml and the “solubility, amount in 1 liter of water” value [2] is listed as 85-100 gr.
